Source: patent US9675614B2, “PRMT5 inhibitors and uses thereof” (Epizyme, Inc., priority 2012, dated 2017)
pIC50: −log10 of the molar value.

target: PRMT5/MEP50 (Homo sapiens (Human), UniProt O14744); assay: PRMT5 Biochemical Assay (PRMT5/MEP50 enzyme assay on peptide substrate, 3H-SAM Flashplate); settings: PRMT5/MEP50 biochemical assay; read-out: Biochemical IC50
Excerpt: S-adenosylmethionine (SAM), S-adenosylhomocysteine (SAH), bicine, KCl, Tween20, dimethylsulfoxide (DMSO), bovine skin gelatin (BSG), and Tris(2-carboxyethyl)phosphine hydrochloride solution (TCEP) were purchased from Sigma-Aldrich at the highest level of purity possible. ^3H-SAM was purchase from American Radiolabeled Chemicals with a specific activity of 80 Ci/mmol. 384-well streptavidin Flashplates were purchased from PerkinElmer.
Peptide representative of human histone H4 residues 1-15 was synthesized with a C-terminal linker-affinity tag motif and a C-terminal amide cap by 21st Century Biochemicals. […] The sequence was Ac-[…][K-Biot]amide (SEQ ID NO.:3).
Full-length human MEP50 (NM_024102) clone was amplified from a human testis cDNA library incorporating a 5′ sequence encoding a 6-histidine tag (MHHHHHH) (SEQ ID NO.:5) fused directly to Arg 2 of MEP50. The amplified genes were subcloned into pENTR/D/TEV (Life Technologies) and subsequently transferred by Gateway™ attL×attR recombination to pDEST8 baculvirus expression vector (Life Technologies).
Recombinant baculovirus and Baculovirus-Infected Insect Cells (BIIC) were generated according to Bac-to-Bac kit instructions (Life Technologies) and Wasilko, 2006, respectively. Protein over-expression was accomplished by infecting exponentially growing Spodoptera frugiperda (SF9) cell culture at 1.2×10^6 cell/ml with a 5000 fold dilution of BIIC stock. Infections were carried out at 27° C. for 72 hours, harvested by centrifugation, and stored at −80° C. for purification.
Flag-PRMT5/6His-MeP50 was eluted with 300 mM Imidazole in the same buffer. […] Reference: Wasilko, D. J. and S. E. Lee: “TIPS: titerless infected-cells preservation and scale-up” Bioprocess J., 5 (2006), pp. 29-32.
General Procedure for PRMT5/MEP50 Enzyme Assays on Peptide Substrates.
The assays were all performed in a buffer consisting of 20 mM Bicine (pH=7.6), 1 mM TCEP, 0.005% BSG, and 0.002% Tween20, prepared on the day of use. Compounds in 100% DMSO (1 ul) were spotted into a polypropylene 384-well V-bottom plates (Greiner) using a Platemate Plus outfitted with a 384-channel head (Thermo Scientific). DMSO (1 ul) was added to Columns 11, 12, 23, 24, rows A-H for the maximum signal control and 1 ul of SAH, a known product and inhibitor of PRMT5/MEP50, was added to columns 11, 12, 23, 24, rows I-P for the minimum signal control. A cocktail (40 ul) containing the PRMT5/MEP50 enzyme and the peptide was added by Multidrop Combi (Thermo-Fisher). The compounds were allowed to incubate with PRMT5/MEP50 for 30 min at 25 degrees Celsius, then a cocktail (10 ul) containing ^3H-SAM was added to initiate the reaction (final volume=51 ul). The final concentrations of the components were as follows: PRMT5/MEP50 was 4 nM, ^3H-SAM was 75 nM, peptide was 40 nM, SAH in the minimum signal control wells was 100 uM, and the DMSO concentration was 1%. The assays were stopped by the addition of non-radioactive SAM (10 ul) to a final concentration of 600 uM, which dilutes the ^3H-SAM to a level where its incorporation into the peptide substrate is no longer detectable. 50 ul of the reaction in the 384-well polypropylene plate was then transferred to a 384-well Flashplate and the biotinylated peptides were allowed to bind to the streptavidin surface for at least 1 hour before being washed three times with 0.1% Tween20 in a Biotek ELx405 plate washer. The plates were then read in a PerkinElmer TopCount plate reader to measure the quantity of ^3H-labeled peptide bound to the Flashplate surface, measured as disintegrations per minute (dpm) or alternatively, referred to as counts per minute (cpm).
[formula] Where dpm=disintegrations per minute, cmpd=signal in assay well, and min and max are the respective minimum and maximum signal controls.
[formula] Where top and bottom are the normally allowed to float, but may be fixed at 100 or 0 respectively in a 3-parameter fit.

PRMT5/MEP50, sequence (O14744 other isoform, or with tags, fused parts or gaps): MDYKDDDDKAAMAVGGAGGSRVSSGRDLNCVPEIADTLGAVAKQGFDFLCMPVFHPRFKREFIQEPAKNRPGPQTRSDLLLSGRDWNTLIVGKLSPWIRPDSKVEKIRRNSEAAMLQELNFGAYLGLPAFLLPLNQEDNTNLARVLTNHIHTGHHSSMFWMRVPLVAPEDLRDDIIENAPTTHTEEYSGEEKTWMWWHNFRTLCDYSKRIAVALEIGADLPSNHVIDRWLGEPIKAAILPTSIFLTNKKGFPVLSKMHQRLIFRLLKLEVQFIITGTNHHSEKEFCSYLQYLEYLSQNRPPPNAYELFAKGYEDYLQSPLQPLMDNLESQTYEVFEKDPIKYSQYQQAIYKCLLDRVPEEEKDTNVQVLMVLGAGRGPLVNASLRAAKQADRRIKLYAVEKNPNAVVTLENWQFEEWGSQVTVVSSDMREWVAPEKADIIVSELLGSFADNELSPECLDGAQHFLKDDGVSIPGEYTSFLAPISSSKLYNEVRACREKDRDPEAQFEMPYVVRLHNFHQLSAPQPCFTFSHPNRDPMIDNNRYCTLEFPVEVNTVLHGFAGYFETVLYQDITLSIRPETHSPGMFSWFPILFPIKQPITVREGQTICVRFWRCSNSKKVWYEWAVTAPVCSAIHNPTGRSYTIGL
PRMT5/MEP50, sequence (Q9BQA1 other isoform, or with tags, fused parts or gaps partner): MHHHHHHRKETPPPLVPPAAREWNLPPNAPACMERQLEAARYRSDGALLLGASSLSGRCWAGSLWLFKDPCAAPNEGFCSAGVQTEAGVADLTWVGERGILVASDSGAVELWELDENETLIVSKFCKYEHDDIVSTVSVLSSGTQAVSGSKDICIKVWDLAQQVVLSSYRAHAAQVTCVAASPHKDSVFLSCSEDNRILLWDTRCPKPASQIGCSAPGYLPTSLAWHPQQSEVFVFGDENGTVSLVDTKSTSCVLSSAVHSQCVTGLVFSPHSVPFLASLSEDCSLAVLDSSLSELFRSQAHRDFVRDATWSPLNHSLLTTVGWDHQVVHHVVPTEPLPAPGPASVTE

Row | SMILES | pIC50
1 | O=C(NCC(O)CN1CCc2ccccc2C1)c1ccc(NC2CCN(CC(F)(F)F)CC2)cc1 (centres unmarked) [Compound 128] | > 7.00
2 | O=C(NCC(O)CN1CCc2ccccc2C1)c1ccc(NC2CCOC2)cc1 (centres unmarked) [Compound 129] | > 7.00
3 | O=C(NCC(O)CN1CCc2ccccc2C1)c1cccc(-n2cncn2)c1 (centres unmarked) [Compound 130] | > 7.00
4 | CN1CCC(N(C)c2cccc(C(=O)NCC(O)CN3CCc4ccccc4C3)c2)CC1 (centres unmarked) [Compound 131] | > 7.00
5 | CN1CCC(N(C)c2cccc(C(=O)NCC(O)CN3CCc4ccccc4C3)c2)C1 (centres unmarked) [Compound 132] | > 7.00
6 | O=C(NCC(O)CN1CCc2ccccc2C1)c1cccc(OCCN2CCOCC2)c1 (centres unmarked) [Compound 133] | > 7.00
7 | CC(C)N1CCC(Oc2cccc(C(=O)NCC(O)CN3CCc4ccccc4C3)c2)C1 (centres unmarked) [Compound 135] | > 7.00
8 | CC(=O)N1CCC(Oc2cccc(C(=O)NCC(O)CN3CCc4ccccc4C3)c2)C1 (centres unmarked) [Compound 136] | > 7.00
9 | O=C(NCC(O)CN1CCc2ccccc2C1)c1cccc(OC2CCN(CC(F)(F)F)C2)c1 (centres unmarked) [Compound 137] | > 7.00
10 | O=C(NCC(O)CN1CCc2ccccc2C1)c1ccc(NC2CCNCC2)cc1 (centres unmarked) [Compound 138] | > 7.00
11 | CN1CCC(Nc2ccc(C(=O)NCC(O)CN3CCc4ccccc4C3)cc2)CC1 (centres unmarked) [Compound 139] | > 7.00
12 | CC(C)N1CCC(Nc2ccc(C(=O)NCC(O)CN3CCc4ccccc4C3)cc2)CC1 (centres unmarked) [Compound 140] | > 7.00
13 | CS(=O)(=O)N1CCC(Nc2ccc(C(=O)NCC(O)CN3CCc4ccccc4C3)cc2)CC1 (centres unmarked) [Compound 141] | > 7.00
14 | O=C(NCC(O)CN1CCc2ccccc2C1)c1ccc(CN2CCNCC2)cc1 (centres unmarked) [Compound 143] | > 7.00
15 | CN(c1ccc(C(=O)NCC(O)CN2CCc3ccccc3C2)cc1)C1CCOC1 (centres unmarked) [Compound 144] | > 7.00
16 | O=C(NCC(O)CN1CCc2ccccc2C1)c1ccc(CN2CCOCC2)cc1 (centres unmarked) [Compound 145] | > 7.00
17 | COCCCOc1ccc(C(=O)NCC(O)CN2CCc3ccccc3C2)cc1 (centres unmarked) [Compound 146] | > 7.00
18 | NCCN1CCN(Cc2cccc(C(=O)NCC(O)CN3CCc4ccccc4C3)c2)CC1 (centres unmarked) [Compound 147] | > 7.00
19 | O=C(NCC(O)CN1CCc2ccccc2C1)c1ccn[nH]1 (centres unmarked) [Compound 148] | 6.00 to 7.00
20 | Cn1ccc(C(=O)NCC(O)CN2CCc3ccccc3C2)n1 (centres unmarked) [Compound 149] | 6.00 to 7.00
21 | Cn1nccc1C(=O)NCC(O)CN1CCc2ccccc2C1 (centres unmarked) [Compound 150] | 6.00 to 7.00

Row | SMILES | pIC50
22 | O=C(NCC(O)CN1CCc2ccccc2C1)c1cccc(CO)c1 (centres unmarked) [Compound 151] | 6.00 to 7.00
23 | CC1CC(Nc2cccc(C(=O)NC[C@@H](O)CN3CCc4ccccc4C3)c2)CC(C)O1 (some centres unmarked) [Compound 153] | > 7.00
24 | O=C(NCC(O)CN1CCc2ccccc2C1)c1cccc(C2CCOC2)c1 (centres unmarked) [Compound 154] | > 7.00
25 | COc1ccc2cc(C(=O)NCC(O)CN3CCc4ccccc4C3)ccc2n1 (centres unmarked) [Compound 155] | 6.00 to 7.00
26 | CC(=O)NCCN1CCN(Cc2cccc(C(=O)NCC(O)CN3CCc4ccccc4C3)c2)CC1 (centres unmarked) [Compound 156] | > 7.00
27 | O=C(O)CN1CCN(Cc2cccc(C(=O)NCC(O)CN3CCc4ccccc4C3)c2)CC1 (centres unmarked) [Compound 157] | 6.00 to 7.00
28 | O=C(O)CCCN1CCN(Cc2cccc(C(=O)NCC(O)CN3CCc4ccccc4C3)c2)CC1 (centres unmarked) [Compound 158] | > 7.00
29 | NC(=O)CCCN1CCN(Cc2cccc(C(=O)NCC(O)CN3CCc4ccccc4C3)c2)CC1 (centres unmarked) [Compound 159] | > 7.00
30 | COc1cc(CN2CCN(C)CC2)cc(C(=O)NCC(O)CN2CCc3ccccc3C2)c1 (centres unmarked) [Compound 160] | > 7.00
31 | CC(c1cccc(C(=O)NCC(O)CN2CCc3ccccc3C2)c1)N1CCN(C)CC1 (centres unmarked) [Compound 161] | > 7.00
32 | CS(=O)(=O)N1CCC(Oc2cccc(C(=O)NCC(O)CN3CCc4ccccc4C3)c2)C1 (centres unmarked) [Compound 162] | > 7.00
33 | CN1CCN(Cc2ccc(C(=O)NCC(O)CN3CCc4ccccc4C3)cc2)CC1 (centres unmarked) [Compound 163] | > 7.00
34 | O=C(NCC(O)CN1CCc2ccccc2C1)c1cccc(N2CCS(=O)(=O)CC2)c1 (centres unmarked) [Compound 164] | > 7.00
35 | CCOC(=O)CN1CCN(Cc2cccc(C(=O)NCC(O)CN3CCc4ccccc4C3)c2)CC1 (centres unmarked) [Compound 165] | > 7.00
36 | C[C@H]1CC(Nc2cccc(C(=O)NC[C@H](O)CN3CCc4ccccc4C3)c2)CCO1 (some centres unmarked) [Compound 167] | > 7.00
37 | C[C@@H]1CC(Nc2cccc(C(=O)NC[C@H](O)CN3CCc4ccccc4C3)c2)CCO1 (some centres unmarked) [Compound 168] | > 7.00
38 | O=C(NCC(O)CN1CCc2ccccc2C1)c1cc(NC2CCOCC2)n[nH]1 (centres unmarked) [Compound 169] | > 7.00
39 | O=C(NCC(O)CN1CCc2ccccc2C1)c1ncc[nH]1 (centres unmarked) [Compound 170] | 6.00 to 7.00
40 | Cn1ccnc1C(=O)NCC(O)CN1CCc2ccccc2C1 (centres unmarked) [Compound 171] | > 7.00
41 | NC(=O)CN1CCN(Cc2cccc(C(=O)NCC(O)CN3CCc4ccccc4C3)c2)CC1 (centres unmarked) [Compound 172] | > 7.00
42 | CNC(=O)CN1CCN(Cc2cccc(C(=O)NCC(O)CN3CCc4ccccc4C3)c2)CC1 (centres unmarked) [Compound 173] | > 7.00

Row | SMILES | pIC50
43 | CN(C)C(=O)CN1CCN(Cc2cccc(C(=O)NCC(O)CN3CCc4ccccc4C3)c2)CC1 (centres unmarked) [Compound 174] | > 7.00
44 | CNC(=O)CCCN1CCN(Cc2cccc(C(=O)NCC(O)CN3CCc4ccccc4C3)c2)CC1 (centres unmarked) [Compound 175] | > 7.00
45 | O=C(NCC(O)CN1CCc2ccccc2C1)c1ccc(OC2CCNC2)cc1 (centres unmarked) [Compound 176] | > 7.00
46 | CN1CCC(Oc2ccc(C(=O)NCC(O)CN3CCc4ccccc4C3)cc2)C1 (centres unmarked) [Compound 177] | > 7.00
47 | CN(C)CCCOc1ccc(C(=O)NCC(O)CN2CCc3ccccc3C2)cc1 (centres unmarked) [Compound 178] | > 7.00
48 | O=C(NCC(O)CN1CCc2ccccc2C1)c1ccc(N2CCS(=O)(=O)CC2)cc1 (centres unmarked) [Compound 179] | > 7.00
49 | O=C(NC[C@H](O)CN1CCc2ccccc2C1)c1cc(NC2CCNCC2)ncn1 [Compound 180] | > 7.00
50 | CN1CCC(Nc2cc(C(=O)NC[C@H](O)CN3CCc4ccccc4C3)ncn2)C1 (some centres unmarked) [Compound 181] | > 7.00
51 | O=C(NC[C@H](O)CN1CCc2ccccc2C1)c1cc(NC2CCN(CC(F)(F)F)C2)ncn1 (some centres unmarked) [Compound 182] | > 7.00
52 | O=C(NC[C@H](O)CN1CCc2ccccc2C1)c1cncc(OC2CCOCC2)c1 [Compound 183] | > 7.00
53 | O=C(NC[C@@H](O)CN1CCc2ccccc2C1)c1ccnc(NC2CCOCC2)c1 [Compound 184] | > 7.00
54 | O=C(NC[C@@H](O)CN1CCc2ccccc2C1)c1cc(NC2CCOCC2)ncn1 [Compound 185] | > 7.00
55 | CN(C)CCN(C)c1cc(C(=O)NC[C@H](O)CN2CCc3ccccc3C2)ccn1 [Compound 186] | > 7.00
56 | O=C(NC[C@H](O)CN1CCc2ccccc2C1)c1ccnc(NCC2CC2)c1 [Compound 187] | > 7.00
57 | O=C(NC[C@H](O)CN1CCc2ccccc2C1)c1ccnc(NCc2ccncc2)c1 [Compound 189] | > 7.00
58 | O=C(NC[C@H](O)CN1CCc2ccccc2C1)c1ccnc(NCc2cccnc2)c1 [Compound 190] | > 7.00
59 | O=C(NC[C@H](O)CN1CCc2ccccc2C1)c1ccnc(NCc2ccccn2)c1 [Compound 191] | > 7.00
60 | O=C(NC[C@H](O)CN1CCc2ccccc2C1)c1ccnc(NC2CCOCC2)c1 [Compound 192] | > 7.00
61 | O=C(NC[C@H](O)CN1CCc2ccccc2C1)c1cc(NC2CCOCC2)ncn1 [Compound 193] | > 7.00
62 | CN(C)C(=O)CCCN1CCN(Cc2cccc(C(=O)NCC(O)CN3CCc4ccccc4C3)c2)CC1 (centres unmarked) [Compound 194] | > 7.00
